# From ChEMBL document CHEMBL3774313, “Natural product-based design, synthesis and biological evaluation of Albiziabioside A derivatives that selectively induce HCT116 cell death” (Eur J Med Chem, 2016)
# Tests used:
# [1] = system: HaCaT; assay: Cytotoxicity against human HaCaT cells assessed as cell viability after 72 hrs by MTT assay; format: cell-based
# [2] = system: MCF7; assay: Antiproliferative activity against human MCF7 cells assessed as cell viability after 72 hrs by MTT assay; format: functional, cell-based; conditions: MCF7, 72 h
# [3] = Cell cycle arrest in human HCT116 cells assessed as accumulation at S phase at 8 uM after 72 hrs by Propidium iodide staining-based flow cytometric analysis (reference value: 37.29 %); format: functional; conditions: HCT-116
# [4] = Cell cycle arrest in human HCT116 cells assessed as accumulation at G2 phase at 4 uM after 72 hrs by Propidium iodide staining-based flow cytometric analysis (reference value: 5.69 %); format: functional; conditions: HCT-116
# [5] = system: HCT-116; assay: Induction of apoptosis in human HCT116 cells assessed as mitochondrial membrane potential at 8 uM after 72 hrs by JC-1 staining based flow cytometric analysis (reference value: 98.02 %); format: functional
# [6] = Cytotoxicity against human HBMEC cells assessed as cell viability after 72 hrs by MTT assay; format: cell-based
# [7] = system: HCT-116; assay: Induction of apoptosis in human HCT116 cells assessed as viable cells at 2 uM after 72 hrs by Annexin V/Propidium iodide staining based flow cytometric analysis (reference value: 92.47 %); format: functional; conditions: HCT-116, 72 h, read-out: Activity
# [8] = Cell cycle arrest in human HCT116 cells assessed as accumulation at G2 phase at 2 uM after 72 hrs by Propidium iodide staining-based flow cytometric analysis (reference value: 5.69 %); format: functional; conditions: HCT-116
# [9] = system: HCT-116; assay: Induction of apoptosis in human HCT116 cells assessed as late apoptotic cells at 2 uM after 72 hrs by Annexin V/Propidium iodide staining based flow cytometric analysis (reference value: 1.49 %); format: functional
# [10] = Cytotoxicity against human LO2 cells assessed as cell viability after 72 hrs by MTT assay; format: cell-based; conditions: L02, 72 h
# [11] = Cell cycle arrest in human HCT116 cells assessed as accumulation at G2 phase at 8 uM after 72 hrs by Propidium iodide staining-based flow cytometric analysis (reference value: 5.69 %); format: functional; conditions: HCT-116
# [12] = system: HCT-116; assay: Induction of apoptosis in human HCT116 cells assessed as necrotic cells at 2 uM after 72 hrs by Annexin V/Propidium iodide staining based flow cytometric analysis (reference value: 0.97 %); format: functional
# [13] = system: HCT-116; assay: Induction of apoptosis in human HCT116 cells assessed as decrease in mitochondrial membrane potential after 72 hrs by JC-1 staining based flow cytometric analysis; format: functional, cell-based
# [14] = system: HCT-116; assay: Induction of apoptosis in human HCT116 cells assessed as early apoptotic cells at 4 uM after 72 hrs by Annexin V/Propidium iodide staining based flow cytometric analysis (reference value: 5.07 %); format: functional
# [15] = Cell cycle arrest in human HCT116 cells assessed as accumulation at S phase at 2 uM after 72 hrs by Propidium iodide staining-based flow cytometric analysis (reference value: 37.29 %); format: functional; conditions: HCT-116
# [16] = system: HCT-116; assay: Induction of apoptosis in human HCT116 cells assessed as necrotic cells at 4 uM after 72 hrs by Annexin V/Propidium iodide staining based flow cytometric analysis (reference value: 0.97 %); format: functional
# [17] = system: HCT-116; assay: Induction of apoptosis in human HCT116 cells assessed as mitochondrial membrane potential at 4 uM after 72 hrs by JC-1 staining based flow cytometric analysis (reference value: 98.02 %); format: functional
# [18] = system: HCT-116; assay: Induction of apoptosis in human HCT116 cells assessed as late apoptotic cells at 4 uM after 72 hrs by Annexin V/Propidium iodide staining based flow cytometric analysis (reference value: 1.49 %); format: functional
# [19] = Antiproliferative activity against human HCT116 cells assessed as cell viability after 72 hrs by MTT assay; format: functional, cell-based; conditions: HCT-116, 72 h
# [20] = Cell cycle arrest in human HCT116 cells assessed as accumulation at S phase at 4 uM after 72 hrs by Propidium iodide staining-based flow cytometric analysis (reference value: 37.29 %); format: functional; conditions: HCT-116
# [21] = system: HepG2; assay: Antiproliferative activity against human HepG2 cells assessed as cell viability after 72 hrs by MTT assay; format: functional, cell-based; conditions: HepG2, 72 h
# [22] = system: HCT-116; assay: Induction of apoptosis in human HCT116 cells assessed as early apoptotic cells at 2 uM after 72 hrs by Annexin V/Propidium iodide staining based flow cytometric analysis (reference value: 5.07 %); format: functional
# [23] = system: HCT-116; assay: Induction of apoptosis in human HCT116 cells assessed as viable cells at 4 uM after 72 hrs by Annexin V/Propidium iodide staining based flow cytometric analysis (reference value: 92.47 %); format: functional; conditions: HCT-116, 72 h, read-out: Activity
# [24] = Cytotoxicity against human CCD-841-CoN cells assessed as cell viability after 72 hrs by MTT assay; format: cell-based
# [25] = system: HCT-116; assay: Induction of apoptosis in human HCT116 cells assessed as necrotic cells at 8 uM after 72 hrs by Annexin V/Propidium iodide staining based flow cytometric analysis (reference value: 0.97 %); format: functional
# [26] = system: HCT-116; assay: Induction of apoptosis in human HCT116 cells assessed as late apoptotic cells at 8 uM after 72 hrs by Annexin V/Propidium iodide staining based flow cytometric analysis (reference value: 1.49 %); format: functional
# [27] = Cell cycle arrest in human HCT116 cells assessed as accumulation at G1 phase at 8 uM after 72 hrs by Propidium iodide staining-based flow cytometric analysis (reference value: 57.02 %); format: functional; conditions: HCT-116
# [28] = system: HCT-116; assay: Induction of apoptosis in human HCT116 cells assessed as early apoptotic cells at 8 uM after 72 hrs by Annexin V/Propidium iodide staining based flow cytometric analysis (reference value: 5.07 %); format: functional
# [29] = system: HeLa; assay: Antiproliferative activity against human HeLa cells assessed as cell viability after 72 hrs by MTT assay; format: functional, cell-based
# [30] = Cell cycle arrest in human HCT116 cells assessed as accumulation at G1 phase at 2 uM after 72 hrs by Propidium iodide staining-based flow cytometric analysis (reference value: 57.02 %); format: functional; conditions: HCT-116
# [31] = Antiproliferative activity against human HL60 cells assessed as cell viability after 72 hrs by MTT assay; format: functional, cell-based; conditions: HL-60, 72 h
# [32] = system: HCT-116; assay: Induction of apoptosis in human HCT116 cells assessed as mitochondrial membrane potential at 2 uM after 72 hrs by JC-1 staining based flow cytometric analysis (reference value: 98.02 %); format: functional
# [33] = system: HCT-116; assay: Induction of apoptosis in human HCT116 cells assessed as viable cells at 8 uM after 72 hrs by Annexin V/Propidium iodide staining based flow cytometric analysis (reference value: 92.47 %); format: functional; conditions: HCT-116, 72 h, read-out: Activity
# [34] = Cytotoxicity against human BEAS2B cells assessed as cell viability after 72 hrs by MTT assay; format: cell-based; conditions: BEAS-2B
# [35] = Cell cycle arrest in human HCT116 cells assessed as accumulation at G1 phase at 4 uM after 72 hrs by Propidium iodide staining-based flow cytometric analysis (reference value: 57.02 %); format: functional; conditions: HCT-116
# [36] = system: A549; assay: Antiproliferative activity against human A549 cells assessed as cell viability after 72 hrs by MTT assay; format: functional, cell-based; conditions: A549, 72 h
smiles,measurement,setting,value
CC(C)c1ccc(/C=C/C(=O)N[C@H]2[C@H](O[C@H]3CC[C@]4(C)[C@H]5CC=C6[C@@H]7CC(C)(C)CC[C@]7(C(=O)O)CC[C@@]6(C)[C@]5(C)CC[C@H]4C3(C)C)O[C@H](CO[C@@H]3OC[C@H](O)[C@H](O)[C@H]3O)[C@@H](O)[C@@H]2O)cc1,IC50,[1],> 50 µM
same,IC50,[2],> 50 µM
same,Activity,[3],42.8%
same,Activity,[4],11.4%
same,Activity,[5],47.79%
same,IC50,[6],> 50 µM
same,viability at 2 µM,[7],81.6%
same,Activity,[8],9.86%
same,Activity,[9],12.21%
same,IC50,[10],> 50 µM
same,Activity,[11],16.5%
same,Activity,[12],1.67%
same,Activity,[13],Dose-dependent effect
same,Activity,[14],5.4%
same,Activity,[15],36.4%
same,Activity,[16],3.34%
same,Activity,[17],73.55%
same,Activity,[18],28%
same,IC50,[19],7.6 µM
same,Activity,[20],42.1%
same,IC50,[21],> 50 µM
same,Activity,[22],4.51%
same,viability at 4 µM,[23],63.3%
same,IC50,[24],> 50 µM
same,Activity,[25],3.9%
same,Activity,[26],27%
same,Activity,[27],40.8%
same,Activity,[28],40.8%
same,IC50,[29],> 50 µM
same,Activity,[30],53.8%
same,IC50,[31],> 50 µM
same,Activity,[32],86.87%
same,viability at 8 µM,[33],28.3%
same,IC50,[34],> 50 µM
same,Activity,[35],46.5%
same,IC50,[36],> 50 µM
